Test results taken from PubChem BioAssay AID2117 (The Scripps Research Institute Molecular Screening Center, 2009).

How the values were obtained:
Experiment in all cases: ROR modulator nuclear receptor reporter panel, late-stage follow-up, ROR modulator project, cell-based, luciferase reporter (AID 2117)
[1] = target: Bile acid receptor (Homo sapiens) (UniProt Q96RI1); settings: ROR/LXR/VP16, FXR, activation potency
[2] = target: Glucose-6-phosphatase catalytic subunit 1 (Homo sapiens) (UniProt P35575); settings: ROR/LXR/VP16, G6Pase Promoter
[3] = target: Oxysterols receptor LXR-beta (Homo sapiens) (UniProt P55055); settings: ROR/LXR/VP16, activation potency
Sequence of Oxysterols receptor LXR-beta (Homo sapiens) (P55055 whole entry, looked up): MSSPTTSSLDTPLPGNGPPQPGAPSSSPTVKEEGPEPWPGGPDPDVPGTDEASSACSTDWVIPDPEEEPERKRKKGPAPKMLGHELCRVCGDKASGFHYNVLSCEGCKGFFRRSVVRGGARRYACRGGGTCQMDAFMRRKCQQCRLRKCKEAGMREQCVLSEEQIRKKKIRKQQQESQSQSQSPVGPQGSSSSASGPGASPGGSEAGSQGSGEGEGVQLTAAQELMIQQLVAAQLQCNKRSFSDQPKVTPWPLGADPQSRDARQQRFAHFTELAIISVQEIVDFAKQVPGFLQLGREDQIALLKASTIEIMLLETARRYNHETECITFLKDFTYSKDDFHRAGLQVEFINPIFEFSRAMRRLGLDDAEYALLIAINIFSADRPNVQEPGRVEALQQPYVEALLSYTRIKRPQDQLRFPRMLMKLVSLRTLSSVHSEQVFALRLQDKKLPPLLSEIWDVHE

Sequence of Bile acid receptor (Homo sapiens) (Q96RI1 whole entry, looked up): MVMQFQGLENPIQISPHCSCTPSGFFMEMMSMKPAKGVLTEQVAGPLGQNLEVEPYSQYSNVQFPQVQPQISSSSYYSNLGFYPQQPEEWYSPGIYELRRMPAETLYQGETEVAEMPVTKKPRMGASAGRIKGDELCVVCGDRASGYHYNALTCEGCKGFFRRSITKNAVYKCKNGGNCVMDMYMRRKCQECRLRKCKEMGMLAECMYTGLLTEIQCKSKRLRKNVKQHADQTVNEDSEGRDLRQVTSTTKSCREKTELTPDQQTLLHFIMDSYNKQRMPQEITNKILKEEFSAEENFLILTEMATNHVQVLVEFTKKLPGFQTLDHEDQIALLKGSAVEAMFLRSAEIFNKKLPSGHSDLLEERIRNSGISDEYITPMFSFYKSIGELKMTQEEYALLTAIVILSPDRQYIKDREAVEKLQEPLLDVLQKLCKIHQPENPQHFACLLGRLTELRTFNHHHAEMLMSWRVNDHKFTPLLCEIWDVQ
Sequence of Glucose-6-phosphatase catalytic subunit 1 (Homo sapiens) (P35575 whole entry, looked up): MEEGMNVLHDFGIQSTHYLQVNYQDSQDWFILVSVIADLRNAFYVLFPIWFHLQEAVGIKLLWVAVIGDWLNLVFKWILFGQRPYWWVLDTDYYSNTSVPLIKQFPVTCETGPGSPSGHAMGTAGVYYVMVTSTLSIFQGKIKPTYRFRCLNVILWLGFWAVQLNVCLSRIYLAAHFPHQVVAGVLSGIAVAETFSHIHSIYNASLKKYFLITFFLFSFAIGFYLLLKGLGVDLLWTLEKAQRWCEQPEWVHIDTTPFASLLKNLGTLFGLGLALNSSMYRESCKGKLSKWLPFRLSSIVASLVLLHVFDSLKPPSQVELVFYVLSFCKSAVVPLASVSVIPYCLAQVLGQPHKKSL

Row | EC50 [1] | IC50 [2] | EC50 [3] | Compound
1 | > 20 µM | – | 12 µM | O=S(=O)(Nc1ccc(C(O)(C(F)(F)F)C(F)(F)F)cc1)c1ccc(Cl)c2nonc12
2 | > 20 µM | – | > 6 µM | O=S(=O)(Nc1ccc(C(O)(C(F)(F)F)C(F)(F)F)cc1)c1cccc2cccnc12

More lines, now with the values behind:

Row | Compound | EC50 [1] | IC50 [2] | EC50 [3]
3 | CC(C)(C)c1ccc(S(=O)(=O)Nc2ccc(C(O)(C(F)(F)F)C(F)(F)F)cc2)cc1 | > 20 µM | 8.4 µM | > 20 µM
4 | O=S(=O)(Nc1ccc(C(O)(C(F)(F)F)C(F)(F)F)cc1)c1cccc2ccccc12 | 12 µM | – | 5.7 µM
5 | COc1cccc(S(=O)(=O)Nc2ccc(C(O)(C(F)(F)F)C(F)(F)F)cc2)c1 | > 20 µM | – | 18 µM
